The values that follow come from patent US11357742B2, “Methods for treating cancer” (X4 Pharmaceuticals, Inc., priority 2015, dated 2022).

The conditions of series [1]: cited from earlier work.
The test system of series [2] is 786-0 and A498 RCC xenografts. Briefly: Murine models with human RCC cell line xenografts (tumor size, IHC, IF, flow cytometry). The format is in vivo, mice. The settings on record: 786-0 and A498 xenografts. On the procedure:
With each of the human cell lines, 1×10^7 tumor cells were implanted subcutaneously in the flanks of 36 nude/beige mice and tumors allowed to grow to roughly 7 mm in diameter. […] Therefore, on day 7, the mice were sacrificed and the tumors were measured and immediately excised and divided into three parts. One part of each tumor was paraffin-embedded for dual color immunofluorescence. Another part was mechanically disaggregated and treated with collagenase/DNAse to generate a single cell suspension for flow cytometry. The third part was frozen for future pharmacokinetic analysis. Microscope slides were made from the paraffin-embedded tumor tissue, which were stained with antibodies against CD11b, Gr-1, and FAP. The number of infiltrating CD11b+/Gr-1+ MDSC and FAP+ fibroblasts present in the tumor tissue was then determined by immunofluorescence (IF) as previously described (1).
The disaggregated tumor specimens were analyzed for CD11b+/Gr-1+ MDSC and FAP+ fibroblasts by flow cytometry. The fraction of both populations expressing CXCR4 were also determined. […] One part was disaggregated into single cell suspensions and analyzed by flow cytometry as above for MDSC. […] Finally, a bone marrow (BM) sample was generated by extruding marrow from an excised femur with a syringe filled with saline and analyzed by flow cytometry for MDSC.
A general note: Xenograft models place foreign cells or tissue in a host animal.

Another series deals with mir-30a and mir-30c. To be noted: 786-0 xenograft tumor, after 8 days of treatment.
For series [3] the following is noted: oral; see current product label; cited from earlier work.
The subject of series [4] is renal cell carcinoma (RCC) xenografts. The settings on record: cited from earlier work.
Setting [5] is: concurrent administration with sunitinib.

From the text for mir-30a and mir-30c: Data is presented as mir-30a or mir-30c expression relative to the mean control value (left side) and relative HIF-2α RNA expression.

Take `CNC(=O)c1ccccc1Sc1ccc2c(/C=C/c3ccccn3)n[nH]c2c1` [axitinib, N-methyl-2-[3-((E)-2-pyridin-2-yl-vinyl)-1H-indazol-6-ylsulfanyl]-benzamide]: the “partition coefficient (n-octanol/water)” value in series [1] was 3.5. The “effects on tumor growth” value in series [2] (nude/beige mice, day 7, axitinib 30 mg/kg daily by gavage) is on record as “no”. Further, in series [2] (CD11b+/Gr-1+ cells), the “MDSC infiltration of tumors” value is “extensive MDSC infiltration”. Further, in the series on mir-30a and mir-30c, the “mir-30a and mir-30c expression” value is “suppressed”. For the same compound, the “effect of food on absorption” value in series [3] is given as “not altered by food”.
Turning to `CC(C)(C)C[C@H]1N[C@@H](C(=O)NCC[C@H](O)CO)[C@H](c2ccc(F)c(Cl)c2)[C@@]12C(=O)Nc1cc(Cl)c(F)cc12` [MI-319], in series [4] (setting [5]), the “development of sunitinib resistance” value is “prevented” and the “influx of MDSC” value is given as “prevented”. For the same compound, the HIF-2 expression entry in series [4] (in vivo) is reported as “suppresses”.
